From ChEMBL document CHEMBL1201862, “PubChem BioAssay data set” (2004)
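Results reflect a 48-hour exposure of cells in 96-well plates to compound at five concentrations. Abbreviation: GI50, concentration required for 50% inhibition of growth.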 The source made the active and inactive calls. Cut-off read from the data, not from the text of the source: active = GI50 up to about 1.1 µM and inactive = higher.

Assays:
Experiment in all cases: NCI tumour cell line growth inhibition, 48 h
ACHN = test system: ACHN
CAKI-1 = test system: CAKI-1
EKVX = test system: EKVX
HCT-116 = test system: HCT-116
HOP-62 = test system: HOP-62
HT-29 = test system: HT-29
LOX IMVI = test system: LOX IMVI
M14 = test system: M14
Malme-3M = test system: Malme-3M
OVCAR-3 = test system: OVCAR-3
OVCAR-4 = test system: OVCAR-4
OVCAR-5 = test system: OVCAR-5
SK-MEL-5 = test system: SK-MEL-5
SK-OV-3 = test system: SK-OV-3
SNB-75 = test system: SNB-75
SW-620 = test system: SW-620
TK-10 = test system: TK-10
UACC-257 = test system: UACC-257
UACC-62 = test system: UACC-62

Measured: GI50

CCC(C)C(N)C(=O)NC(CC(N)=O)C(=O)NC(CC(C)C)C(=O)NC(CCCCN)C(=O)NC(C)C(=O)NC(CC(C)C)C(=O)NC(C)C(=O)NC(C)C(=O)NC(CC(C)C)C(=O)NC(C)C(=O)NC(CCCCN)C(=O)NC(CCCCN)C(=O)NC(C(=O)NC(CC(C)C)C(N)=O)C(C)CC (configuration not stated)
inactive: ACHN 14 µM | CAKI-1 8.3 µM | EKVX 8.05 µM | HCT-116 15.6 µM | HOP-62 2.55 µM | HT-29 19.5 µM | LOX IMVI 18.3 µM | M14 2.48 µM | Malme-3M 5.98 µM | OVCAR-3 8 µM | OVCAR-4 15.3 µM | OVCAR-5 14.6 µM | SK-MEL-5 6.53 µM | SK-OV-3 18.7 µM | SNB-75 6.56 µM | SW-620 20.4 µM | TK-10 14.2 µM | UACC-257 14.2 µM | UACC-62 6.64 µM

COc1ccc(-c2cc(-c3cc(C)ccc3O)nc(O)n2)cc1
inactive: ACHN 42.8 µM | CAKI-1 > 100 µM | EKVX 7.11 µM | HCT-116 77.1 µM | HOP-62 22.6 µM | HT-29 > 100 µM | LOX IMVI > 100 µM | M14 > 100 µM | Malme-3M > 100 µM | OVCAR-3 > 100 µM | OVCAR-4 > 100 µM | SK-OV-3 44.4 µM | SNB-75 26.2 µM | SW-620 > 100 µM | TK-10 40.8 µM | UACC-257 > 100 µM | UACC-62 > 100 µM

C[C@]12CCCC(=O)C1C[C@H](C(=O)O)CC2 (some centres not stated)
inactive: ACHN > 100 µM | CAKI-1 > 100 µM | HCT-116 > 100 µM | HOP-62 > 100 µM | HT-29 > 100 µM | LOX IMVI > 100 µM | M14 > 100 µM | Malme-3M > 100 µM | OVCAR-3 > 100 µM | OVCAR-4 > 100 µM | OVCAR-5 > 100 µM | SK-OV-3 > 100 µM | SNB-75 > 100 µM | SW-620 > 100 µM | TK-10 > 100 µM | UACC-257 > 100 µM | UACC-62 > 100 µM

Cn1cnc([N+](=O)[O-])c1Sc1nccn1-c1ccccc1
inactive: ACHN 47.6 µM | CAKI-1 97.9 µM | EKVX 44.7 µM | HCT-116 38 µM | HOP-62 > 100 µM | HT-29 61.1 µM | LOX IMVI 16.8 µM | M14 44.9 µM | Malme-3M 17.5 µM | OVCAR-3 50.5 µM | OVCAR-4 44.6 µM | OVCAR-5 > 100 µM | SK-MEL-5 69.2 µM | SK-OV-3 > 100 µM | SNB-75 71.9 µM | SW-620 42.9 µM | TK-10 > 100 µM | UACC-257 37.6 µM | UACC-62 35.2 µM

COC(=O)C(CC(=O)Nc1ccc(C)cc1)C(=O)C(=O)Nc1ccccc1C(C)C (configuration not stated)
inactive: ACHN > 100 µM | CAKI-1 > 100 µM | EKVX > 100 µM | HCT-116 > 100 µM | HOP-62 > 100 µM | HT-29 > 100 µM | LOX IMVI > 100 µM | M14 > 100 µM | Malme-3M > 100 µM | OVCAR-3 > 100 µM | OVCAR-4 > 100 µM | OVCAR-5 > 100 µM | SK-MEL-5 > 100 µM | SK-OV-3 > 100 µM | SNB-75 > 100 µM | SW-620 22.2 µM | TK-10 > 100 µM | UACC-257 > 100 µM | UACC-62 > 100 µM

N#C/C(c1nc2ccccc2[nH]1)=c1\s/c(=C/c2ccccc2)c(=O)n1-c1ccccc1
inactive: ACHN > 100 µM | CAKI-1 > 100 µM | EKVX > 100 µM | HCT-116 > 100 µM | HOP-62 > 100 µM | LOX IMVI > 100 µM | M14 > 100 µM | Malme-3M > 100 µM | OVCAR-3 > 100 µM | OVCAR-4 > 100 µM | OVCAR-5 > 100 µM | SK-MEL-5 81.8 µM | SK-OV-3 > 100 µM | SNB-75 > 100 µM | SW-620 > 100 µM | TK-10 > 100 µM | UACC-257 > 100 µM | UACC-62 > 100 µM

Clc1cc(Cc2cc(Cl)c(Cl)c3c2OCOC3)c2c(c1Cl)COCO2
inactive: ACHN 32.4 µM | CAKI-1 22.3 µM | HCT-116 36.4 µM | HOP-62 25.8 µM | HT-29 > 100 µM | LOX IMVI 53.1 µM | M14 38.4 µM | Malme-3M 40.6 µM | OVCAR-3 25.3 µM | OVCAR-4 18.7 µM | OVCAR-5 > 100 µM | SK-MEL-5 43.2 µM | SK-OV-3 23.3 µM | SNB-75 27.5 µM | SW-620 > 100 µM | TK-10 29.9 µM | UACC-257 94 µM | UACC-62 49.1 µM
